Data: patent US11040966B2, “Benzimidazole-proline derivatives” (IDORSIA PHARMACEUTICALS LTD, priority 2012, dated 2021)
Like-named read-outs stand apart in the source and are kept apart here.

What was measured:
[1] = tested on: rats; settings: rats treated with the compound; cited from earlier work
[2] = tested on: humans; settings: indication primary insomnia; cited from earlier work
[3] = tested on: amyloid precursor protein transgenic mice; settings: after acute sleep restriction; cited from earlier work
[4] = tested on: rat; settings: cited from earlier work
[5] = tested on: mouse; settings: administered chronically; cited from earlier work
[6] = Measurement of brain and systemic concentration after oral administration; type: in vivo; settings: rat, male wistar rats, 3 h after oral administration (100 mg/kg), n=3
Protocol: Measurement of Brain and Systemic Concentration after Oral Administration:
In order to assess brain penetration, the concentration of the compound is measured in plasma ([P]), and brain ([B]), sampled 3 h (or at different time points) following oral administration (e.g. 100 mg/kg) to male wistar rats. The compounds are formulated e.g. in 100% PEG 400. Samples are collected in the same animal at the same time point (+/−5 min). Blood is sampled from the vena cava caudalis into containers with EDTA as anticoagulant and centrifuged to yield plasma. Brain is sampled after cardiac perfusion of 10 mL NaCl 0.9% and homogenized into one volume of cold phosphate buffer (pH 7.4). All samples are extracted with MeOH and analyzed by LC-MS/MS. Concentrations are determined with the help of calibration curves.

[7] = tested on: rodents; settings: cited from earlier work
[8] = brain, read-out: concentration of the compound in brain ([B])
[9] = plasma, read-out: concentration of the compound in plasma ([P])

Structure (SMILES)	concentration at 3 h [6, 8]	concentration at 3 h [6, 9]	other results
CNC(=O)[C@@H](c1ccccc1)N1CCc2cc(OC)c(OC)cc2[C@@H]1CCc1ccc(C(F)(F)F)cc1 [(2R)-2-{(1S)-6,7-dimethoxy-1-[2-(4-trifluoromethyl-phenyl)-ethyl]-3,4-dihydro-1H-isoquinolin-2-yl}-N-methyl-2-phenyl-acetamide]	–	–	declarative and non-declarative learning and memory [1]: intact; clinical efficacy [2]: showed clinical efficacy; brain levels of amyloid-beta (Aβ) and Aβ plaque deposition [3]: decreased; activity in nicotine self-administration model [4]: displayed pharmacological activity; activity in mouse model of depression [5]: antidepressant-like activity
COc1ccc(-n2nccn2)c(C(=O)N2CCC[C@@]2(C)c2nc3c(C)c(Cl)ccc3[nH]2)c1 [Example 5.36, [(S)-2-(5-Chloro-4-methyl-1H-benzoimidazol-2-yl)-2-methyl-pyrrolidin-1-yl]-(5-methoxy-2-[1,2,3]triazol-2-yl-phenyl)-methanone]	1810 ng/g	1280 ng/mL	–
Cn1c(SCC(=O)N2CCC[C@H]2C(=O)Nc2ccccc2-c2ccccc2)nc2ccccc21 [N-biphenyl-2-yl-1-{[(1-methyl-1H-benzimidazol-2-yl)sulfanyl]acetyl}-L-prolinamide]	–	–	behavioral (locomotor sensitization) and molecular (transcriptional responses) changes induced by repeated amphetamine administration [7]: reduced
Cc1ccc(-n2nccn2)c(C(=O)N2CCC[C@@]2(C)c2nc3cc(Br)cc(C)c3[nH]2)c1 [Example 5.19, [(S)-2-(5-Bromo-7-methyl-1H-benzoimidazol-2-yl)-2-methyl-pyrrolidin-1-yl]-(5-methyl-2-[1,2,3]triazol-2-yl-phenyl)-methanone]	3880 ng/g	2100 ng/mL	–
Cc1ccc(-c2ncccn2)c(C(=O)N2CCC[C@@]2(C)c2nc3cc(Br)cc(C)c3[nH]2)c1 [Example 5.277, [(S)-2-(5-Bromo-7-methyl-1H-benzoimidazol-2-yl)-2-methyl-pyrrolidin-1-yl]-(5-methyl-2-pyrimidin-2-yl-phenyl)-methanone]	5880 ng/g	3560 ng/mL	–
